We go through five compounds from patent publication US12404295B2, “(Hetero)aryl-methyl-thio-beta-D-galactopyranoside derivatives” (Idorsia Pharmaceuticals Ltd, priority 2019, dated 2025).

A word on the IC50: it is the concentration that inhibits the measured activity by half.

The target in one assay is human Gal-3 (hGal-3) (Homo sapiens (Human), UniProt P17931). As to the kind of experiment: competitive binding assay: biotinylated hGal-3 binding to microplate-adsorbed asialofetuin (ASF). Summed up:
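Peroxidase activity developed with ABTS measures the biotinylated hGal-3 remaining on the asialofetuin-coated surface after competition with test compounds. Incubation ran 3 h at 4 °C, followed by 1 h with streptavidin-peroxidase at 80 ng/mL.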

A further assay addresses human Gal-1 (hGal-1) (Homo sapiens (Human), UniProt P09382). Description: competitive binding assay: biotinylated hGal-1 binding to microplate-adsorbed asialofetuin (ASF). The conditions noted are these: Table 15; read-out: IC50 (Galectin-1 inhibition). Summed up: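 Biotinylated human Gal-1 (300-1000 ng/mL) competes with serially diluted compound for binding to ASF-coated plates, 3 h at 4° C. Bound protein detected with streptavidin-peroxidase and ABTS substrate (spectrophotometric). IC50 given as mean of several measurements.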

Setting [1] is: Gal-3 inhibition, binding of biotinylated hGal-3 to ASF, mean values, read-out: IC50.

Read-outs that look alike come from different tables or passages of the source.

human Gal-1 (hGal-1), sequence (P09382 whole entry): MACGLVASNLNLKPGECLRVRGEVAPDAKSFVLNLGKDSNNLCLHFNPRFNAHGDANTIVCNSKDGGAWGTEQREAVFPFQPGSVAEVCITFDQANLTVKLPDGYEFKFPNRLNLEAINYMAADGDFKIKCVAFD
human Gal-3 (hGal-3), sequence (P17931 whole entry): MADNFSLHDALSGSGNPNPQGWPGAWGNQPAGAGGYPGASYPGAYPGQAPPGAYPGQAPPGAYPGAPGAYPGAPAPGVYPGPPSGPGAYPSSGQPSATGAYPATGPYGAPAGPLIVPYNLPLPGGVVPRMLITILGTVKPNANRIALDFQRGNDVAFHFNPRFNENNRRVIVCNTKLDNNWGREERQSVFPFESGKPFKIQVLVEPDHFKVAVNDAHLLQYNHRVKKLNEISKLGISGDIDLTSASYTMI

On to `CC(C)c1cccnc1[C@@H](S[C@@H]1O[C@H](CO)[C@H](O)[C@H](n2cc(-c3cc(F)c(F)c(F)c3)nn2)[C@H]1O)C1(O)CCC(F)(F)CC1` [Example 2.44.132R., (2S,3R,4S,5R,6R)-2-(((R)-(4,4-Difluoro-1-hydroxycyclohexyl)(3-isopropylpyridin-2-yl)methyl)thio)-6-(hydroxymethyl)-4-(4-(3,4,5-trifluorophenyl)-1H-1,2,3-triazol-1-yl)tetrahydro-2H-pyran-3,5-diol], for which the IC50 at human Gal-3 (hGal-3) (setting [1]) and at human Gal-1 (hGal-1) was 50 nM each time.
Consider `Cc1conc1[C@@H](S[C@@H]1O[C@H](CO)[C@H](O)[C@H](n2cc(-c3cc(F)c(F)c(F)c3)nn2)[C@H]1O)C(C)(C)O` [Example 2.31.120R., (2S,3R,4S,5R,6R)-2-(((R)-2-Hydroxy-2-methyl-1-(4-methylisoxazol-3-yl)propyl)thio)-6-(hydroxymethyl)-4-(4-(3,4,5-trifluorophenyl)-1H-1,2,3-triazol-1-yl)tetrahydro-2H-pyran-3,5-diol], for which the IC50 on human Gal-3 (hGal-3) (setting [1]) amounted to 320 nM; at human Gal-1 (hGal-1) it was 1800 nM.
Consider `Cc1conc1[C@H](S[C@@H]1O[C@H](CO)[C@H](O)[C@H](n2cc(-c3cc(F)c(F)c(F)c3)nn2)[C@H]1O)C1(O)CCC(F)(F)CC1` [Example 2.44.120S., (2S,3R,4S,5R,6R)-2-(((S)-(4,4-Difluoro-1-hydroxycyclohexyl)(4-methylisoxazol-3-yl)methyl)thio)-6-(hydroxymethyl)-4-(4-(3,4,5-trifluorophenyl)-1H-1,2,3-triazol-1-yl)tetrahydro-2H-pyran-3,5-diol], for which the IC50 turned out to be 8270 nM at human Gal-3 (hGal-3) (Table 5, read-out: IC50 (Gal-3 inhibition)) and 22600 nM on human Gal-1 (hGal-1).
`CC(C)Cc1ccccc1C(S[C@@H]1O[C@H](CO)[C@H](O)[C@H](n2cc(-c3cc(F)c(F)c(F)c3)nn2)[C@H]1O)C(C)(C)O` (stereo partly drawn) [Example 2.31.107., (2S,3R,4S,5R,6R)-2-((2-Hydroxy-1-(2-isobutylphenyl)-2-methylpropyl)thio)-6-(hydroxymethyl)-4-(4-(3,4,5-trifluorophenyl)-1H-1,2,3-triazol-1-yl)tetrahydro-2H-pyran-3,5-diol]: the IC50 at human Gal-3 (hGal-3) (setting [1]) turned out to be 260 nM; on human Gal-1 (hGal-1) it was 240 nM.
For `CC(C)Cc1c([C@H](S[C@@H]2O[C@H](CO)[C@H](O)[C@H](n3cc(-c4cc(F)c(F)c(F)c4)nn3)[C@H]2O)C2(O)CCC(F)(F)CC2)noc1C1CC1` [Example 2.44.131S., (2S,3R,4S,5R,6R)-2-(((S)-(5-Cyclopropyl-4-isobutylisoxazol-3-yl)(4,4-difluoro-1-hydroxycyclohexyl)methyl)thio)-6-(hydroxymethyl)-4-(4-(3,4,5-trifluorophenyl)-1H-1,2,3-triazol-1-yl)tetrahydro-2H-pyran-3,5-diol] the same measures were 9740 nM and 13700 nM.
